In PubChem BioAssay (NCI):
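GI50 marks 50% less growth. TGI: total growth inhibition.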

Columns and labels:
Assay in all cases: growth of human tumour cells (NCI), 384-well format
PC-3 prostate = test system: PC-3 prostate
COLO 205 colon = test system: COLO 205 colon
T-47D breast = test system: T-47D breast
MCF7 breast = test system: MCF7 breast
OVCAR-4 ovarian = test system: OVCAR-4 ovarian
SF-295 CNS = test system: SF-295 CNS
SF-268 CNS = test system: SF-268 CNS
U251 glioblastoma = test system: U251 glioblastoma
DU-145 prostate = test system: DU-145 prostate
SF-539 CNS = test system: SF-539 CNS
SK-MEL-5 melanoma = test system: SK-MEL-5 melanoma
NCI-H226 lung = test system: NCI-H226 lung
A498 renal = test system: A498 renal
IGROV1 ovarian = test system: IGROV1 ovarian
UO-31 renal = test system: UO-31 renal
ACHN renal = test system: ACHN renal
NCI-H460 NSCLC = test system: NCI-H460 NSCLC
UACC-62 melanoma = test system: UACC-62 melanoma
NCI-H23 lung = test system: NCI-H23 lung
NCI-H522 lung = test system: NCI-H522 lung
RPMI-8226 leukemia = test system: RPMI-8226 leukemia
SNB-19 CNS = test system: SNB-19 CNS
HCT-15 colon = test system: HCT-15 colon
TK-10 renal = test system: TK-10 renal
MDA-MB-231 breast = test system: MDA-MB-231 breast
HS 578T breast = test system: HS 578T breast
OVCAR-8 ovarian = test system: OVCAR-8 ovarian
HCT-116 colon = test system: HCT-116 colon
HOP-62 NSCLC = test system: HOP-62 NSCLC
CAKI-1 renal = test system: CAKI-1 renal
HT29 colon = test system: HT29 colon
MDA-MB-435 melanoma = test system: MDA-MB-435 melanoma
OVCAR-5 ovarian = test system: OVCAR-5 ovarian
MALME-3M melanoma = test system: MALME-3M melanoma
SW-620 colon = test system: SW-620 colon
MOLT-4 leukemia = test system: MOLT-4 leukemia
KM12 colon = test system: KM12 colon
RXF 393 renal = test system: RXF 393 renal
UACC-257 melanoma = test system: UACC-257 melanoma
HOP-92 NSCLC = test system: HOP-92 NSCLC
EKVX NSCLC = test system: EKVX NSCLC
OVCAR-3 ovarian = test system: OVCAR-3 ovarian
SN12C renal = test system: SN12C renal
NCI-H322M lung = test system: NCI-H322M lung
LOX IMVI melanoma = test system: LOX IMVI melanoma
NCI/ADR-RES ovarian = test system: NCI/ADR-RES ovarian
SNB-75 CNS = test system: SNB-75 CNS
BT-549 breast = test system: BT-549 breast
SK-MEL-28 melanoma = test system: SK-MEL-28 melanoma
A549 NSCLC = test system: A549 NSCLC
M14 melanoma = test system: M14 melanoma
SR leukemia = test system: SR leukemia
HL-60(TB) leukemia = test system: HL-60(TB) leukemia
SK-OV-3 ovarian = test system: SK-OV-3 ovarian
HCC-2998 colon = test system: HCC-2998 colon
MDA-MB-468 breast = test system: MDA-MB-468 breast
786-0 renal = test system: 786-0 renal

Cc1ccc(-c2cc(C(F)(F)F)nn2-c2ccc(S(N)(=O)=O)cc2)cc1
GI50 (PC-3 prostate): 14.6 µM
TGI (PC-3 prostate): 27.8 µM
GI50 (COLO 205 colon): 16.2 µM
TGI (COLO 205 colon): 29.7 µM
GI50 (T-47D breast): 11.4 µM
TGI (T-47D breast): 23.7 µM
GI50 (MCF7 breast): 14.2 µM
TGI (MCF7 breast): 27.2 µM
GI50 (OVCAR-4 ovarian): 11.8 µM
TGI (OVCAR-4 ovarian): 24.1 µM
GI50 (SF-295 CNS): 16.5 µM
TGI (SF-295 CNS): 30.1 µM
GI50 (SF-268 CNS): 16.4 µM
TGI (SF-268 CNS): 30 µM
GI50 (U251 glioblastoma): 16 µM
TGI (U251 glioblastoma): 29.5 µM
GI50 (DU-145 prostate): 15 µM
TGI (DU-145 prostate): 28.2 µM
GI50 (SF-539 CNS): 16.7 µM
TGI (SF-539 CNS): 30.4 µM
GI50 (SK-MEL-5 melanoma): 13.8 µM
TGI (SK-MEL-5 melanoma): 26.7 µM
GI50 (NCI-H226 lung): 13 µM
TGI (NCI-H226 lung): 25.6 µM
GI50 (A498 renal): 15.6 µM
TGI (A498 renal): 28.9 µM
GI50 (IGROV1 ovarian): 16.3 µM
TGI (IGROV1 ovarian): 29.8 µM
GI50 (UO-31 renal): 14.7 µM
TGI (UO-31 renal): 27.9 µM
GI50 (ACHN renal): 15.1 µM
TGI (ACHN renal): 28.3 µM
GI50 (NCI-H460 NSCLC): 15.3 µM
TGI (NCI-H460 NSCLC): 28.7 µM
GI50 (UACC-62 melanoma): 18.4 µM
TGI (UACC-62 melanoma): 32.4 µM
GI50 (NCI-H23 lung): 15.6 µM
TGI (NCI-H23 lung): 29 µM
GI50 (NCI-H522 lung): 13.6 µM
TGI (NCI-H522 lung): 26.5 µM
GI50 (RPMI-8226 leukemia): 12.1 µM
TGI (RPMI-8226 leukemia): 24.5 µM
GI50 (SNB-19 CNS): 16.6 µM
TGI (SNB-19 CNS): 30.4 µM
GI50 (HCT-15 colon): 14.7 µM
TGI (HCT-15 colon): 27.9 µM
GI50 (TK-10 renal): 16.7 µM
TGI (TK-10 renal): 30.4 µM
GI50 (MDA-MB-231 breast): 15.7 µM
TGI (MDA-MB-231 breast): 29.2 µM
GI50 (HS 578T breast): 14.5 µM
TGI (HS 578T breast): 27.7 µM
GI50 (OVCAR-8 ovarian): 15.6 µM
TGI (OVCAR-8 ovarian): 28.9 µM
GI50 (HCT-116 colon): 15.2 µM
TGI (HCT-116 colon): 28.5 µM
GI50 (HOP-62 NSCLC): 15.3 µM
TGI (HOP-62 NSCLC): 28.6 µM
GI50 (CAKI-1 renal): 16.8 µM
TGI (CAKI-1 renal): 30.5 µM
GI50 (HT29 colon): 16.1 µM
TGI (HT29 colon): 29.6 µM
GI50 (MDA-MB-435 melanoma): 19.3 µM
TGI (MDA-MB-435 melanoma): 33.4 µM
GI50 (OVCAR-5 ovarian): 16.2 µM
TGI (OVCAR-5 ovarian): 29.7 µM
GI50 (MALME-3M melanoma): 16.2 µM
TGI (MALME-3M melanoma): 29.8 µM
GI50 (SW-620 colon): 17.1 µM
TGI (SW-620 colon): 30.9 µM
GI50 (MOLT-4 leukemia): 9.05 µM
TGI (MOLT-4 leukemia): 21.3 µM
GI50 (KM12 colon): 15.8 µM
TGI (KM12 colon): 29.2 µM
GI50 (RXF 393 renal): 14.4 µM
TGI (RXF 393 renal): 27.4 µM
GI50 (UACC-257 melanoma): 16.6 µM
TGI (UACC-257 melanoma): 30.3 µM
GI50 (HOP-92 NSCLC): 16 µM
TGI (HOP-92 NSCLC): 29.4 µM
GI50 (EKVX NSCLC): 14.2 µM
TGI (EKVX NSCLC): 27.2 µM
GI50 (OVCAR-3 ovarian): 14.3 µM
TGI (OVCAR-3 ovarian): 27.4 µM
GI50 (SN12C renal): 15.2 µM
TGI (SN12C renal): 28.6 µM
GI50 (NCI-H322M lung): 15.9 µM
TGI (NCI-H322M lung): 29.4 µM
GI50 (LOX IMVI melanoma): 17.6 µM
TGI (LOX IMVI melanoma): 31.4 µM
GI50 (NCI/ADR-RES ovarian): 15.7 µM
TGI (NCI/ADR-RES ovarian): 29.1 µM
GI50 (SNB-75 CNS): 10.8 µM
TGI (SNB-75 CNS): 23 µM
GI50 (BT-549 breast): 15.9 µM
TGI (BT-549 breast): 29.3 µM
GI50 (SK-MEL-28 melanoma): 17.6 µM
TGI (SK-MEL-28 melanoma): 31.4 µM
GI50 (A549 NSCLC): 14.4 µM
TGI (A549 NSCLC): 27.5 µM
GI50 (M14 melanoma): 19 µM
TGI (M14 melanoma): 33.1 µM
GI50 (SR leukemia): 29 µM
TGI (SR leukemia): 43.8 µM
GI50 (HL-60(TB) leukemia): 20.5 µM
TGI (HL-60(TB) leukemia): 34.8 µM
GI50 (SK-OV-3 ovarian): 17.1 µM
TGI (SK-OV-3 ovarian): 30.9 µM
GI50 (HCC-2998 colon): 14.9 µM
TGI (HCC-2998 colon): 28.1 µM
GI50 (MDA-MB-468 breast): 13.6 µM
TGI (MDA-MB-468 breast): 26.5 µM
GI50 (786-0 renal): 14.1 µM
TGI (786-0 renal): 27.4 µM
